According to paper PMC5908784, “Extracellular loops 2 and 3 of the calcitonin receptor selectively modify agonist binding and efficacy” (Biochemical Pharmacology, 2018):
Substitutions are numbered along the chain they refer to. Where a SMILES comes first, the peptide text is derived from it. Bridges are numbered along the chain shown (N, C = ends).

What was measured:
Test in all cases: Heterologous whole cell competition binding
Conditions in all cases: heterologous competition of 125I-sCT(8-32), whole cells, mean ± S.E.M., SEM
hCTR F356A = target: T1, hCTR F356A (Homo sapiens, UniProt P30988, F356A)
T1 construct: c-Myc (N); expressed in transfected cells
T1 sequence (P30988 25-474 F356A): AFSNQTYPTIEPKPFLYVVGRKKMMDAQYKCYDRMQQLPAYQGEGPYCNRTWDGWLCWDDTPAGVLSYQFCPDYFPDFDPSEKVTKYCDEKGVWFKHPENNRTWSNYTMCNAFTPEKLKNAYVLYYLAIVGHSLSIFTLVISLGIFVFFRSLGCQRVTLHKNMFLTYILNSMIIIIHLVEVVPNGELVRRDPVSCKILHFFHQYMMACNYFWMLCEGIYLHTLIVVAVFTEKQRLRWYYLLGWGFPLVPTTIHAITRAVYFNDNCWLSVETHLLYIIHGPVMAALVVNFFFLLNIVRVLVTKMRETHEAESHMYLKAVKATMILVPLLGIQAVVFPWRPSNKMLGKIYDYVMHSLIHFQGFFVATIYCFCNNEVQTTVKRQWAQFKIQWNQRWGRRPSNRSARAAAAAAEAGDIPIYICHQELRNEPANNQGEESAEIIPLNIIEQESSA
Method in brief: (§1)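 Gamma counter read-out of bound radioactivity after overnight incubation and removal of non-bound ligand. Affinities are given as pKi, derived with Cheng-Prusoff correction.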

hCTR L368A = target: T2, hCTR L368A (Homo sapiens, UniProt P30988, L368A)
T2 construct: c-Myc (N); expressed in transfected cells
T2 sequence (P30988 25-474 L368A): T1 sequence (P30988 25-474 F356A) with A332F, L344A
Method in brief: as §1

hCTR L291A = target: T3, hCTR L291A (Homo sapiens, UniProt P30988, L291A)
T3 construct: expressed in transfected cells
T3 sequence (P30988 25-474 L291A): T1 sequence (P30988 25-474 F356A) with L267A, A332F
Method in brief: as §1

hCTR T280A = target: T4, hCTR T280A (Homo sapiens, UniProt P30988, T280A)
T4 construct: expressed in transfected cells
T4 sequence (P30988 25-474 T280A): T1 sequence (P30988 25-474 F356A) with T256A, A332F
Method in brief: as §1

hCTR V283A = target: T5, hCTR V283A (Homo sapiens, UniProt P30988, V283A)
T5 construct: expressed in transfected cells
T5 sequence (P30988 25-474 V283A): T1 sequence (P30988 25-474 F356A) with V259A, A332F
Method in brief: as §1

SMILES: CSCC[C@H](NC(=O)CNC(=O)[C@H](CO)NC(=O)[C@H](Cc1ccccc1)NC(=O)[C@H](CCCNC(=N)N)NC(=O)[C@H](Cc1c[nH]cn1)NC(=O)[C@H](Cc1ccccc1)NC(=O)[C@H](CC(N)=O)NC(=O)[C@H](CC(N)=O)NC(=O)[C@H](CC(C)C)NC(=O)[C@H](CC(N)=O)NC(=O)[C@H](CCCNC(=N)N)NC(=O)[C@H](Cc1c[nH]c2ccccc12)NC(=O)[C@H](Cc1ccc(O)cc1)NC(=O)[C@H](C)NC(=O)[C@H](CO)NC(=O)[C@H](CC(C)C)NC(=O)[C@@H](NC(=O)[C@@H]1CSSC[C@H](N)C(=O)N[C@@H](CO)C(=O)N[C@@H](CC(N)=O)C(=O)N[C@@H](CC(C)C)C(=O)N[C@@H](CO)C(=O)N[C@@H]([C@@H](C)O)C(=O)N1)C(C)C)C(=O)NCC(=O)N[C@@H](Cc1ccccc1)C(=O)NCC(=O)N1CCC[C@H]1C(=O)N[C@@H](CCC(=O)O)C(=O)N[C@H](C(=O)N1CCC[C@H]1C(N)=O)[C@@H](C)O [pCT] (H-CSNLSTCVLSAYWRNLNNFHRFSGMGFGPETP-NH2; disulfide 1-7)
- Ki (hCTR F356A): 12 nM
- Ki (hCTR L368A): 8.51 nM
- Ki (hCTR L291A): 67.6 nM
- Ki (hCTR T280A): 6.31 nM
- Ki (hCTR V283A): 15.1 nM
